Consider two molecules from PMC10322718, “Expanding the substrate scope of pyrrolysyl-transfer RNA synthetase enzymes to include non-α-amino acids in vitro and in vivo” (Nature Chemistry, 2023).

The target in one series is T1, MaPylRS (Methanomethylophilus alvi, UniProt M9SC49, N166A/V168A).
T1 construct: gene MMALV_11280; pET32a, E. coli BL21-Gold(DE3)pLysS, Ni-NTA; for crystals 6xHis-thrombin site N-terminal, tag cut; dimer in crystal
Description: X-ray crystal structure, […] Å. The format is binding. Particulars: ternary complex with AMP-PNP; active site, two orientations (chains A and B).

Series [1] concerns the molecule itself. Description: crystal structure; MaFRSA with 100 mM m-CF3-2-BMA and 10 mM AMP-PNP, hanging-drop vapour diffusion at 18 °C, 10 mM Tris-HCl pH 7.4, 26% PEG 3,350; space group I4, two copies in the asymmetric unit, 1.8 Å.

Regarding `O=C(O)C(Cc1cccc(C(F)(F)F)c1)C(=O)O` [compound 18, m-CF3-2-BMA], the “X-ray crystal structure, 1.8 Å” value on MaPylRS is “we solved the crystal structure of MaFRSA bound to both m-CF3-2-BMA and the non-hydrolysable ATP analogue”.

B1: MaFRSA (Methanomethylophilus alvus pyrrolysyl-tRNA synthetase, MaPylRS, N166A V168A) (enzyme)
chain: MTVKYTDAQIQRLREYGNGTYEQKVFEDLASRDAAFSKEMSVASTDNEKKIKGMIANPSRHGLTQLMNDIADALVAEGFIEVRTPIFISKDALARMTITEDKPLFKQVFWIDEKRALRPMLAPNLYSVMRDLRDHTDGPVKIFEMGSCFRKESHSGMHLEEFTMLALADMGPRGDATEVLKNYISVVMKAAGLPDYDLVQEESDVYKETIDVEINGQEVCSAAVGPHYLDAAHDVHEPWSGAGFGLERLLTIREKYSTVKKGGASISYLNGAKIN
notes: Pyrrolysyl-tRNA synthetase (PylRS) of Methanomethylophilus alvus with N166A and V168A; construct GSS linker-6xHis-SSG linker-thrombin site-MaFRSA from pET32a-6xHis-thrombin-MaFRSA, tag removed with thrombin; Crystallised with m-CF3-2-benzylmalonate and AMP-PNP; source: E. coli BL21-Gold (DE3)pLysS, purified (TALON, thrombin cleavage, Superdex 200); not shown: 6xHis, N-terminal, cleaved
B1: the binding result in series [1] was “binds”.
